Here are results for one molecule from patent publication US20210275576A1, “MOLECULAR HYDROGEN-CONTAINING COMPOSITION FOR PREVENTION AND/OR IMPROVEMENT OF GENETIC DISORDER” (MiZ Company Limited, priority 2020, published 2021).

The assay has as its system patient diagnosed as having Down syndrome. The settings on record: inhalation 1-3 hours per day for one month, hydrogen concentration 4% to 6%. From the text:
A patient diagnosed as having Down syndrome developed mild cognitive impairment and could not go out because of a depressive symptom. Additionally, their skin had wrinkles due to premature aging characteristic to Down syndrome.

SMILES strings stand for the structures.

With `[HH]` [hydrogen, molecular hydrogen], the “ability to go out” value is “could go out”, the motivation to learn entry was “got motivated to learn”, the “skin resilience (premature aging)” value is recorded as “became resilient” and the “skin wrinkles (premature aging)” value is “became less noticeable”. Moreover, where the note is “200 ml/min (Jobs-α generator)”, the depressive symptom entry was “improved”.
